Results published in patent US20230295133A1, “PROCESS FOR PREPARING A COMPOUND USEFUL TO TREAT MYCOSES” (PULMOCIDE LIMITED, priority 2014, published 2023).
Values after ≈ are worked out from the molar mass of the structure shown.

What was measured:
[1] = system: Aspergillus fumigatus NCPF7100; assay: Broth microdilution assay (modified EUCAST); format: cell-based; conditions: broth microdilution assay, n = 3
[2] = system: Aspergillus fumigatus NCPF2010; assay: Broth microdilution assay (modified EUCAST); format: cell-based; conditions: broth microdilution assay, n = 3; read-out: MIC75 against Aspergillus fumigatus isolate NCPF2010
Procedure, shortened: (§1)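 Spores from 3-day Sabouraud cultures (working suspension 2 × 10^5 spores/mL) were added to an equal volume of RPMI-1640 (2 mM L-glutamine, 0.5% BSA, 2% glucose, 0.165 M MOPS, pH 7) containing compound, in quadruplicate. After 48 hr at 35 °C, OD530 gave percent inhibition. MIC50, MIC75 and MIC90 came from concentration-response curves.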

[3] = system: Aspergillus fumigatus NCPF7099; assay: Broth microdilution assay (modified EUCAST); format: cell-based; conditions: n = 3, read-out: MIC75 against Aspergillus fumigatus isolate NCPF7099
Procedure, shortened: as §1

[4] = system: Aspergillus fumigatus L98H (TR34/L98H); assay: Broth microdilution assay (modified EUCAST); format: cell-based; conditions: broth microdilution assay, n = 3
Procedure, shortened: as §1

[5] = system: Aspergillus fumigatus (NCPF2010); assay: Resazurin-microtitre assay of planktonic fungus growth; format: cell-based; conditions: Aspergillus fumigatus NCPF2010; resazurin-microtitre assay
Experimental: This assay was conducted using a modified, published method (Monteiro et al., 2012). Spores of aspergillus fumigatus (NCPF2010, Public Health England, Wiltshire) were cultured in Sabouraud dextrose agar for 3 days. A stock spore suspension was prepared from a Sabouraud dextrose agar culture by washing with PBS-tween (10 mL; PBS containing 0.05% Tween-20, 100 U/mL Penicillin and 100 U/mL Streptomycin). The spore count was assessed using a Neubauer haemocytometer and, using PBS adjusted to 10^6 spores/mL. A working suspension of spores (10^4 spores/mL) was prepared in filter sterilised MOPS RPMI-1640 (50 mL; RPMI-1640 containing 2 mM L-glutamine, 2% glucose and 0.165 M MOPS, buffered to pH 7 with NaOH). Resazurin sodium salt (100 µL of 1% solution; Sigma-Aldrich, Dorset, UK) was added to the spore suspension and mixed well. The spore suspension-resazurin mixture (100 µL/well) was added to 384-well plates (Catalogue number 353962, BD Falcon, Oxford, UK).
Simultaneously, test compounds (0.5 µL DMSO solution) were added to 100 µL of the spore-resazurin mixture in quadruplicate to provide a final DMSO solution of 0.5% using an Integra VIAFLO 96 (Intergra, Zizers, Switzerland). For non-spore control wells, MOPS-RPMI-resazurin solution (100 µL) was added instead of the spore-resazurin mixture. The plate was covered with a Breathe Easier membrane (Catalogue No Z763624, Sigma-Aldrich, Dorset, UK), and incubated (35° C., 5% CO2) until fluorescence in the inoculated wells was double that of the control wells (around 24 hr). The fluorescence of each well (545 nm (excitation) / 590 nm (emission), gain 800, focal height 5.5 mm) was determined using a multi-scanner (Clariostar: BMG, Buckinghamshire, UK). The percentage inhibition for each well was calculated and the MIC50, MIC75 and MIC90 values were calculated from the concentration-response curve generated for each test compound.

[6] = system: Aspergillus fumigatus (NCPF2010) invasion; assay: Aspergillus fumigatus infection of human alveoli bilayers (transwells), GM in lower chamber; format: cell-based; conditions: Posaconazole 0.01 µg/mL lower chamber
Experimental: In vitro models of human alveoli, consisting of a bilayer of human alveolar epithelial cells and endothelial cells, were prepared as previously described (Hope et al., 2007). This system allows administration of a test compound to the upper (“air” space) and/or lower (“systemic” space) compartments. This flexibility has been exploited to explore the effects of combination treatments by dosing compound Example 1 to the upper chamber and posaconazole or other anti-fungal agents to the lower chamber. Primary human pulmonary artery endothelial cells (HPAEC) were harvested and diluted to 10^6 cells/mL in EGM-2 media (Lonza, Basel, Switzerland). Transwells were inverted and the cell suspension (100 µL/well) was applied to the base of each transwell. The inverted transwells were incubated at RT within a flow hood for 2 hr after which they were turned upright. EGM-2 media was added to the lower (700 µL/well) and upper (100 µL/well) compartments and the transwells were incubated for 48 hr (37° C., 5% CO2). The EGM-2 media in the lower compartment was then replaced with fresh EGM-2 media. A549 cells were harvested and diluted to 5×10^5 cells/mL in 10% EBM, then added to the upper compartment (100 µL/well) of all transwells and the plates incubated for 72 hr (37° C., 5% CO2). Conidia of aspergillus fumigatus (the itraconazole sensitive strain NCPF2010 and the itraconazole resistant strain TR34-L98H) were cultured separately in Sabouraud dextrose agar for 3 days. A stock conidia suspension of either strain was prepared from a Sabouraud dextrose agar culture by washing with PBS-tween (10 mL; PBS containing 0.05% Tween-20, 100 U/mL Penicillin and 100 U/mL Streptomycin). The conidia count was assessed using a Neubauer haemocytometer and adjusted to 10^6 conidia/mL with PBS. A working stock of conidia was prepared in EBM (conc of 10^5 conidia/mL) immediately prior to use.
Test and reference compounds (or neat DMSO as the vehicle) were added to the appropriate wells of 24-well plates (3 µL/well containing 600 µL of 2% FBS EBM) for lower compartment treatment and to 96-well plates (1 µL/well containing 200 µL of 2% FBS EBM) for the treatment of the upper compartment, to provide a final DMSO concentration of 0.5%. The media in the upper compartment was aspirated and that containing the appropriate test and reference compounds, or vehicle, were added (100 µL/well). Transwells were then transferred into the 24-well plate containing the test and reference compounds or DMSO vehicle. After incubation for 1 hr (35° C., 5% CO2) the conidia suspension (10 µL/well) was added to the upper compartment of each transwell. Plates were then incubated for 24 hr (35° C., 5% CO2). Supernatants from each compartment (5 µL/compartment) were collected and stored (-20° C.). Media was replaced daily after collection of the supernatants and all wells were treated with test and reference compounds or with DMSO, as described above, for 3 days. Samples continued to be collected until fungal growth was visible by eye in all transwells. The levels of GM in the supernatant in lower compartment were then measured by ELISA (BioRad, CA, USA) as an index of aspergillus fumigatus invasion.

[7] = system: aspergillus fumigatus (ATCC 13073 [strain: NIH 5233]); assay: In vivo anti-fungal activity, prophylactic and therapeutic treatment of infected immunocompromised neutropenic mice; parameters: species or system A/J mice; conditions: for Cell numbers in BALF, Macrophage / Cell numbers in BALF, Neutrophil / TNFα conc in serum: mean ± SEM
[8] = system: Chaectomium globosum ATCC44699; assay: Fungus panel screening, CLSI broth microdilution; format: cell-based
Experimental: Fungus panel screening was conducted by Eurofins Panlabs Inc. The MIC and MIC50 values of the test articles were determined following the guidelines of the Clinical and Laboratory Standards Institute, broth microdilution methods for yeast (CLSI M27-A2), (CLSI, 2002) and for filamentous fungi (CLSI M38-A), (CLSI, 2008).

[9] = system: aspergillus fumigatus (ATCC 13073 [strain: NIH 5233]); assay: Survival of severely immunosuppressed neutropenic infected mice, monotherapy and combination; format: in vivo, A/J mice; conditions: Example 1 0.4 mg/mL (in); Posaconazole 1 mg/kg (po); once daily days 1-6
Experimental: On day 0, animals were infected intranasally with 35 µL of the spore suspension (1.67 × 10^8 spores/mL in physiological saline) of aspergillus fumigatus (ATCC 13073 [strain: NIH 5233]). Compound Example (I), prepared as a suspension in isotonic saline (0.4 mg/mL), was dosed once daily by an intra-nasal injection (35 µL/mouse) on days 1-6 after infection. Posaconazole (1 mg/kg) was given orally once daily on days 1-6 after infection. Body weight and survival were monitored daily up to day 7.

[10] = treatment day 1, Example 1 0.1 µg/mL upper chamber
[11] = treatment day 6, Example 1 0.1 µg/mL upper chamber
[12] = prophylactic treatment (days 0, 1, 2 and 3), 0.4 mg/mL
[13] = prophylactic treatment, 0.08 mg/mL
[14] = prophylactic treatment, 0.4 mg/mL
[15] = prophylactic treatment, 2 mg/mL
[16] = therapeutic treatment (days 1, 2 and 3), 0.4 mg/mL
[17] = therapeutic treatment, 0.4 mg/mL
[18] = therapeutic treatment, 10 mg/mL

In the case of `C[C@@H]1[C@H](O)[C@@H](C)/C=C/C=C/C=C/C=C/C=C/C=C/C=C/[C@H](O[C@@H]2O[C@H](C)[C@@H](O)[C@H](N)[C@@H]2O)C[C@@H]2O[C@](O)(C[C@@H](O)C[C@@H](O)[C@H](O)CC[C@@H](O)C[C@@H](O)CC(=O)O[C@H]1C)C[C@H](O)[C@H]2C(=O)O` [Amphotericin B, reference compound], the “MIC75 against Aspergillus fumigatus isolate NCPF7100” value [1] was >1.08 µM, the MIC [2] was 0.382 µM (≈ 0.353 µg/mL) and the MIC [3] was 0.365 µM (≈ 0.337 µg/mL). The “MIC75 against Aspergillus fumigatus isolate L98H” value [4] was 0.209 µM (≈ 0.193 µg/mL), the “MIC50 Planktonic fungal growth” value [5] was 0.0285 µM (≈ 0.0263 µg/mL) and the “MIC75 Planktonic fungal growth” value [5] was 0.0644 µM (≈ 0.0595 µg/mL).

In the case of `Cc1cc(N2CCN(c3ccc(C(=O)Nc4ccc(F)cc4)cc3)CC2)ccc1OC[C@@H]1CO[C@@](Cn2cncn2)(c2ccc(F)cc2F)C1` [Example 1, 4-(4-(4-(((3R,5R)-5-((1H-1,2,4-Triazol-1-yl)Methyl)-5-(2,4-Difluorophenyl)Tetra Hydrofuran-3-yl)Methoxy)-3-Methylphenyl)Piperazin-1-yl)-N-(4-Fluorophenyl) Benzamide], the “GM Levels in the Lower Chamber, OD value” ([6]; treatment day 0, Example 1 0.1 µg/mL upper chamber) was 0 OD, the “GM Levels in the Lower Chamber, % inhibition vs. control” value [6, 10] was 86% and the “GM Levels in the Lower Chamber, OD value” [6, 10] was 0.091 OD. For the same molecule, the “GM Levels in the Lower Chamber, % inhibition vs. control” value ([6]; treatment day 2, Example 1 0.1 µg/mL upper chamber) was 3.4%, the “GM Levels in the Lower Chamber, % inhibition vs. control” value ([6]; treatment day 3, Example 1 0.1 µg/mL upper chamber) was 3.7% and the “GM Levels in the Lower Chamber, % inhibition vs. control” value ([6]; treatment day 4, Example 1 0.1 µg/mL upper chamber) was 4.5%. For the same molecule, the “GM Levels in the Lower Chamber, % inhibition vs. control” value ([6]; treatment day 5, Example 1 0.1 µg/mL upper chamber) was 0.3%, the “GM Levels in the Lower Chamber, % inhibition vs. control” value [6, 11] was -0.3% and the “GM Levels in the Lower Chamber, OD value” [6, 11] was 1.18 OD. The “GM Levels in the Lower Chamber, % inhibition vs. control” value ([6]; treatment day 7, Example 1 0.1 µg/mL upper chamber) was 0.9%, the “GM Levels in the Lower Chamber, % inhibition vs. control” value ([6]; treatment day 8, Example 1 0.1 µg/mL upper chamber) was 2.8% and the “% Inhibition versus Infected Controls, GM in BALF” value [7, 12] was 92%. For the same molecule, the “% Inhibition versus Infected Controls, GM in serum” value [7, 12] was 95%, the “% Inhibition versus Infected Controls, Lung Fungal Load” value [7, 12] was 81% and the “Macrophage in BALF, % inhibition” value [7, 13] was 38%. The “Neutrophil in BALF, % inhibition” value [7, 13] was 24%, the “Cell numbers in BALF, Macrophage” value [7, 13] was 0.40 ± 0.15 ×10^5/mL and the “Cell numbers in BALF, Neutrophil” value [7, 13] was 0.37 ± 0.04 ×10^5/mL. The “Macrophage in BALF, % inhibition” value [7, 14] was 51%, the “Neutrophil in BALF, % inhibition” value [7, 14] was 47% and the “Cell numbers in BALF, Macrophage” value [7, 14] was 0.32 ± 0.07 ×10^5/mL. For the same molecule, the “Cell numbers in BALF, Neutrophil” value [7, 14] was 0.26 ± 0.12 ×10^5/mL, the “TNFα conc in serum” value [7, 14] was 7.3 ± 3.5 pg/mL and the “Macrophage in BALF, % inhibition” value [7, 15] was 60%. The “Neutrophil in BALF, % inhibition” value [7, 15] was 55%, the “Cell numbers in BALF, Macrophage” value [7, 15] was 0.26 ± 0.05 ×10^5/mL and the “Cell numbers in BALF, Neutrophil” value [7, 15] was 0.22 ± 0.04 ×10^5/mL. For the same molecule, the “TNFα conc in serum” value [7, 15] was 4.7 ± 0.4 pg/mL, the “% Inhibition versus Infected Control, GM in BALF” value [7, 16] was 94% and the “% Inhibition versus Infected Control, GM in serum” value [7, 16] was 91%. The “% Inhibition versus Infected Control, Lung Fungal Load” value [7, 16] was 97%, the “Macrophage in BALF, % inhibition” value [7, 17] was 34% and the “Neutrophil in BALF, % inhibition” value [7, 17] was 22%. For the same molecule, the “Cell numbers in BALF, Macrophage” value [7, 17] was 0.43 ± 0.05 ×10^5/mL, the “Cell numbers in BALF, Neutrophil” value [7, 17] was 0.38 ± 0.04 ×10^5/mL and the “TNFα conc in serum” value [7, 17] was 6.2 ± 0.5 pg/mL. The “Macrophage in BALF, % inhibition” value ([7]; therapeutic treatment, 2 mg/mL) was 38%, the “Neutrophil in BALF, % inhibition” value ([7]; therapeutic treatment, 2 mg/mL) was 31% and the “Cell numbers in BALF, Macrophage” value ([7]; therapeutic treatment, 2 mg/mL) was 0.40 ± 0.11 ×10^5/mL. The “Cell numbers in BALF, Neutrophil” value ([7]; therapeutic treatment, 2 mg/mL) was 0.34 ± 0.05 ×10^5/mL, the “TNFα conc in serum” value ([7]; therapeutic treatment, 2 mg/mL) was 5.5 ± 0.7 pg/mL and the “Macrophage in BALF, % inhibition” value [7, 18] was 51%. The “Neutrophil in BALF, % inhibition” value [7, 18] was 45%, the “Cell numbers in BALF, Macrophage” value [7, 18] was 0.32 ± 0.07 ×10^5/mL and the “Cell numbers in BALF, Neutrophil” value [7, 18] was 0.27 ± 0.08 ×10^5/mL. The “TNFα conc in serum” value [7, 18] was 4.9 ± 0.6 pg/mL, the MIC50 ([8]; 50% inhibition by visual inspection (CLSI)) was 0.063 µg/mL (≈ 0.0923 µM) and the MIC ([8]; 100% inhibition by visual inspection (CLSI), read-out: MIC100) was > 8 µg/mL. The Median survival [9] was 6 days, the “No. of survivors on day 7” value [9] was 0/6 and the “Survivors on day 7 (%)” value [9] was 0%.
